Experimental findings from patent US12398154B2, “Azaquinazoline pan-KRas inhibitors” (Mirati Therapeutics, Inc., priority 2020, dated 2025) are described below.

One assay has as its system pERK in PSN1 cells. The experiment in a line: Inhibition of KRas phosphorylation of ERK (Cisbio HTRF pERK assay). Conditions: Homo sapiens, PSN1, 3 h, read-out: Inhibition (HTRF IC50) of KRas-mediated Phosphorylation of ERK, PSN1.
Another assay concerns the target KRas G12R (Homo sapiens, UniProt P01116, G12R). The experiment in a line: biochemical.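 Note: TR-FRET displacement assay of compound binding to KRas, read after one hour at room temperature, potency from a four-parameter fit of percent-of-control values.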
In another assay the test system is pERK in H727 cells. The experiment in a line: Inhibition of KRas phosphorylation of ERK (Cisbio HTRF pERK assay). Conditions: Homo sapiens, NCI-H727, read-out: Inhibition (HTRF IC50) of KRas-mediated Phosphorylation of ERK, H727.
Another assay has as its system pERK in HCT116 cells. The assay is described as above. Conditions: Homo sapiens, HCT-116, read-out: Inhibition (HTRF IC50) of KRas-mediated Phosphorylation of ERK, HCT116. For orientation: Time-resolved FRET reads energy transfer from a long-lived donor to a nearby acceptor.
In a further assay the test system is pERK in A549 cells. The description is as above. To be noted: Homo sapiens, A549, read-out: Inhibition (HTRF IC50) of KRas-mediated Phosphorylation of ERK, A549.
Another assay concerns pERK in H460 cells. The description is as above. Conditions: Homo sapiens, NCI-H460, read-out: Inhibition (HTRF IC50) of KRas-mediated Phosphorylation of ERK, H460.
Assay [1] relates to phospho-ERK in NCI-H727 (G12V) cells. Description: Inhibition of KRas-mediated phosphorylation of ERK (in-cell western). To be noted: Homo sapiens, NCI-H727, 3 h, 3 hours compound, phospho-ERK normalized to GAPDH. The assay is classed as cell-based. In short, it runs like this:
(§1)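 Following fixation in formaldehyde and permeabilization in cold methanol, ERK phosphorylated at Thr202/Tyr204 was quantified against GAPDH.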

Assay [2] has as its system phospho-ERK in AsPC-1 (G12D) cells. Described as above. The assay is classed as cell-based. Conditions: Homo sapiens, ASPC1, 3 h, 3 hours compound, phospho-ERK normalized to GAPDH. The method, boiled down:
as §1

The test system of assay [3] is phospho-ERK in NCI-H460 (Q61H) cells. The assay is described as above. The assay is classed as cell-based. Conditions: Homo sapiens, NCI-H460, 3 h, 3 hours compound, phospho-ERK normalized to GAPDH. In short, it runs like this: as §1
The test system of a further assay is pERK in MKN1 cells. Description: Inhibition of KRas phosphorylation of ERK (Cisbio HTRF pERK assay). To be noted: Homo sapiens, MKN-1, 3 h, read-out: Inhibition (HTRF IC50) of KRas-mediated Phosphorylation of ERK, MKN1.
The target of another assay is KRas G12D (Homo sapiens, UniProt P01116, G12D). Description: biochemical.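 Note: TR-FRET displacement binding assay on KRas, read after a one-hour incubation at room temperature, IC50 fitted from percent-of-control values.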
Sequence of KRas G12D (P01116 1-169 isoform P01116-2 G12D): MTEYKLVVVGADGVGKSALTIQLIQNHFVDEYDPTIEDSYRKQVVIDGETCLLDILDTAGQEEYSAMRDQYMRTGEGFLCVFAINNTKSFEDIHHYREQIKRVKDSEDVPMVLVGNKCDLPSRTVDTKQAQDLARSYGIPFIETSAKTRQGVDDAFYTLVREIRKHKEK
The next assay deals with pERK in ASPC1 cells. The experiment in a line: Inhibition of KRas phosphorylation of ERK (Cisbio HTRF pERK assay). To be noted: Homo sapiens, ASPC1, read-out: Inhibition (HTRF IC50) of KRas-mediated Phosphorylation of ERK, AsPC-1.
Another assay has as its target KRas G12V (Homo sapiens, UniProt P01116, G12V). Description: biochemical.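 Note: KRas binding measured by TR-FRET displacement at room temperature, IC50 fitted from percent of control values.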

Sequence of KRas G12R (P01116 1-169 isoform P01116-2 G12R): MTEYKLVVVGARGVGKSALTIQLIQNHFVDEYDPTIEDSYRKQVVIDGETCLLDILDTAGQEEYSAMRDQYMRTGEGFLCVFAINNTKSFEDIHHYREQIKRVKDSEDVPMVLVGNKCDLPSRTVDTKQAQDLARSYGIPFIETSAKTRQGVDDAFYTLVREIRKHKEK
Sequence of KRas G12V (P01116 1-169 isoform P01116-2 G12V): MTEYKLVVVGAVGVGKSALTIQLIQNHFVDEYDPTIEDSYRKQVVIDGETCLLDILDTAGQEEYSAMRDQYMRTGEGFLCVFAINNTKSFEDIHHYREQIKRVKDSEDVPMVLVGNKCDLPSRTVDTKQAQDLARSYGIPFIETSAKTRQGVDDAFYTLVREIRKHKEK

For the molecule `O=C1NC(=O)C2(CCCN(c3nc(OC[C@@]45CCCN4C[C@H](F)C5)nc4c(F)c(-c5cc(O)cc6ccc(F)c(F)c56)ncc34)C2)N1` (stereo partly drawn) [Example 444, 7-(7-(7,8-difluoro-3-hydroxynaphthalen-1-yl)-8-fluoro-2-(((2R,7aS)-2-fluorohexahydro-1H-pyrrolizin-7a-yl)methoxy)pyrido[4,3-d]pyrimidin-4-yl)-1,3,7-triazaspiro[4.5]decane-2,4-dione], the IC50 in the assay on pERK in PSN1 cells is at least 10000 nM; against KRas G12R, at most 2 nM; in the assay with pERK in H727 cells it was 1160 nM; with pERK in HCT116 cells it was 1760 nM; in the assay on pERK in A549 cells it was 734 nM; in the assay on pERK in H460 cells, 1560 nM. The half-maximal inhibitory concentration (IC50) was found to be 1740 nM in assay [1]; 2440 nM in assay [2]; 656 nM in assay [3]; 37 nM in the assay with pERK in MKN1 cells; 5 nM against KRas G12D; 1690 nM in the assay on pERK in ASPC1 cells. The molecule further returned an IC50 against KRas G12V of at most 2 nM.

Consider `O=C1CC2(CCCN(c3nc(OC[C@@]45CCCN4C[C@H](F)C5)nc4c(F)c(-c5cc(O)cc6ccc(F)c(F)c56)ncc34)C2)N1` (stereo partly drawn) [Example 452, 6-(7-(7,8-difluoro-3-hydroxynaphthalen-1-yl)-8-fluoro-2-(((2R,7aS)-2-fluorohexahydro-1H-pyrrolizin-7a-yl)methoxy)pyrido[4,3-d]pyrimidin-4-yl)-1,6-diazaspiro[3.5]nonan-2-one], for which the concentration for half-maximal inhibition (IC50) in the assay on pERK in PSN1 cells is 4080 nM; against KRas G12R, at most 2 nM; in the assay with pERK in H727 cells, 165 nM; in the assay with pERK in HCT116 cells it was 1510 nM; in the assay on pERK in A549 cells, 224 nM; in the assay on pERK in H460 cells, 639 nM. For the same molecule, the IC50 came to 793 nM in [1]; 182 nM in [2]; 154 nM in assay [3]; 41 nM in the assay on pERK in MKN1 cells; 4 nM at KRas G12D; 204 nM in the assay on pERK in ASPC1 cells. For the same molecule, on KRas G12V, the IC50 was at most 2 nM.

With `CCc1c(F)ccc2cc(O)cc(-c3ncc4c(N5CCCC6(CCC(F)(F)C6)C5)nc(OC[C@@]56CCCN5C[C@H](F)C6)nc4c3F)c12` (stereo partly drawn) [Example 509, 4-(4-(2,2-difluoro-7-azaspiro[4.5]decan-7-yl)-8-fluoro-2-(((2R,7aS)-2-fluorohexahydro-1H-pyrrolizin-7a-yl)methoxy)pyrido[4,3-d]pyrimidin-7-yl)-5-ethyl-6-fluoronaphthalen-2-ol], the IC50 with pERK in PSN1 cells came out at 6140 nM; at KRas G12R, 12 nM; with pERK in H727 cells it was 338 nM; with pERK in HCT116 cells, 314 nM; in the assay on pERK in A549 cells, 211 nM; with pERK in H460 cells, 206 nM. In addition, the IC50 stood at 89 nM in the assay on pERK in MKN1 cells, 6 nM against KRas G12D, 144 nM in the assay with pERK in ASPC1 cells and 6 nM at KRas G12V.

Turning to `CCc1c(F)ccc2cc(O)cc(-c3ncc4c(N5CCCC6(CCC(O)C6)C5)nc(OC[C@@]56CCCN5C[C@H](F)C6)nc4c3F)c12` (stereo partly drawn) [Example 510, 7-(7-(8-ethyl-7-fluoro-3-hydroxynaphthalen-1-yl)-8-fluoro-2-(((2R,7aS)-2-fluorotetrahydro-1H-pyrrolizin-7a(5H)-yl)methoxy)pyrido[4,3-d]pyrimidin-4-yl)-7-azaspiro[4.5]decan-2-ol], the concentration for half-maximal inhibition (IC50) amounted to 5100 nM in the assay with pERK in PSN1 cells; 9 nM against KRas G12R; 388 nM in the assay on pERK in H727 cells; 954 nM with pERK in HCT116 cells; 515 nM with pERK in A549 cells; 397 nM in the assay with pERK in H460 cells. For the same molecule, the IC50 turned out to be 73 nM in the assay with pERK in MKN1 cells, 10 nM at KRas G12D, 186 nM with pERK in ASPC1 cells and 8 nM against KRas G12V.

One may read the IC50 as the midpoint of a concentration-inhibition curve.
